Activity calls are given as the source filed them.

Assay [1] has as its target Beta-adrenergic receptor kinase 1 (Homo sapiens, UniProt P25098). In words: blockers of aptamer binding to GRK2 – biochemical, flow cytometry beads, FAM-aptamer, powder set 1, dose response (AID 588720). (In general: A flow cytometer gives signals particle by particle.)
Assay [2] concerns the target T1, Carboxy-terminal domain RNA polymerase II polypeptide A small phosphatase 1 (Homo sapiens, UniProt Q9GZU7).
T1 sequence (Q9GZU7 whole entry): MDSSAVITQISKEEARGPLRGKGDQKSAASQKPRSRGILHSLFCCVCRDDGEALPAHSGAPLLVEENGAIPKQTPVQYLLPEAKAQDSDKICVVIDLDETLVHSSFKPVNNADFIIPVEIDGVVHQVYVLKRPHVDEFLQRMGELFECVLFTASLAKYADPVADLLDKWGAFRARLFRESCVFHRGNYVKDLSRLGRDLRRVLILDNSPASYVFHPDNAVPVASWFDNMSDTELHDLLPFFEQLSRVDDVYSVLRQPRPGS
The assay is described as follows: CTDSP1 inhibitors, concentration-response, biochemical, absorbance readout, ultra-high-throughput screen actives (AID 540297). It counts as functional.

Assay [3] in a line: Fluorescence polarization-based biochemical high throughput dose response assay for activators of the Protein Kinase A-R1A (PKA-R1A) complex. [Related pubchem assays (depositor defined):AID504704, AID504707, AID504799, AID504800]. For orientation: Fluorescence polarisation rises when a labelled molecule tumbles more slowly, as on binding a larger partner.
The nature of assay [4]: Fluorescence polarization-based biochemical high throughput dose response assay for activators of the Protein Kinase A-R2B (PKA-R2B) complex. [Related pubchem assays (depositor defined):AID504700, AID504704, AID504796, AID504797].
Assay [5] concerns the target Voltage-gated inwardly rectifying potassium channel KCNH2 (Homo sapiens, UniProt Q12809). Particulars: Potency.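 Further: confirmatory quantitative high-throughput screen measuring inhibition of hERG channel activity.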
Assay [6] concerns HEK293. The assay is described as follows: inhibition of NOD1-driven NF-kB reporter – cell-based, luminescence, uHTS, primary screen (AID 1578). The class given is functional. Conditions: Homo sapiens.
In assay [7] the test system is BJ. In words: BJ-TERT fibroblast viability loss – cell-based, RAS-independent, luminescence, dose response (AID 1933). The class given is functional. Conditions: Homo sapiens.
Assay [8] concerns HEK293. The assay is described as follows: cells. Conditions: Homo sapiens. It counts as functional, cell-based.
Assay [9] deals with BJ. In words: cells. It counts as functional, cell-based. Particulars: Homo sapiens.
The test system of assay [10] is HEK293. The assay is described as follows: cells. The class given is functional, cell-based. Conditions: Homo sapiens. The source holds these as a separate data set.
The target of assay [11] is Nucleotide-binding oligomerization domain-containing protein 2 (Homo sapiens, UniProt Q9HC29). The assay is described as follows: inhibition of NOD2-driven NF-kB reporter – cell-based, luminescence, uHTS, HEK293 (AID 1566). The class given is functional.
Nucleotide-binding oligomerization domain-containing protein 2, sequence (Q9HC29 whole entry, the tested form may be a part): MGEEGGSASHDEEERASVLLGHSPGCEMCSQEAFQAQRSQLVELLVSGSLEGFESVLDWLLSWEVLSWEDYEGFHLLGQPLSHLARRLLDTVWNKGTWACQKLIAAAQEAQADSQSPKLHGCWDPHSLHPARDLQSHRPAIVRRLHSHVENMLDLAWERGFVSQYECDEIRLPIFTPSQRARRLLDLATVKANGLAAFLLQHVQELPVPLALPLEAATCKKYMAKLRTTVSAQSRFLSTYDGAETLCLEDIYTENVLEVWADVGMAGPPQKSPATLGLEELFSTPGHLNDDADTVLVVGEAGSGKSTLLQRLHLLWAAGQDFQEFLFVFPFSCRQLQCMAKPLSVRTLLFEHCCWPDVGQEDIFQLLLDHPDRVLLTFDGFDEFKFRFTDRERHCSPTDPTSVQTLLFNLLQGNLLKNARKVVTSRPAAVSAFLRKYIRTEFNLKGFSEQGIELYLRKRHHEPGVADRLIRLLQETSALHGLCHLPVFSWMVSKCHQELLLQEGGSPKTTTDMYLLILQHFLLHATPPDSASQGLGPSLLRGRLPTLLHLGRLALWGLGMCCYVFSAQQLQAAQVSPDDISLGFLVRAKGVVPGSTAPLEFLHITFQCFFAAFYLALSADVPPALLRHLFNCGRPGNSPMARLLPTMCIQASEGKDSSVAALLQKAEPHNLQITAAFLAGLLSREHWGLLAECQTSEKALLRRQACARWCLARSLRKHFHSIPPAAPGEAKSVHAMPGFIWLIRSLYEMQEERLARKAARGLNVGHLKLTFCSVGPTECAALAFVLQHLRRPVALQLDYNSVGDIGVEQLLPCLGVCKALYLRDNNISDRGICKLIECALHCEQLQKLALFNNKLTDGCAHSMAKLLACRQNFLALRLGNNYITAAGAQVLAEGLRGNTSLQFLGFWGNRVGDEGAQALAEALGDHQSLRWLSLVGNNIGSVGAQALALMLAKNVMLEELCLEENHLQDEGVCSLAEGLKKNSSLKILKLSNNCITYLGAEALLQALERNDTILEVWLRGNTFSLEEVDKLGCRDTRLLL
The subject of assay [12] is HEK293. The assay is described as follows: NOD2 signaling inhibitors in MDP-stimulated cells, cell-based, uHTS, luminescence (AID 2001). Particulars: Homo sapiens. It counts as functional.
In assay [13] the test system is HEK293. The assay is described as follows: cells. The class given is functional, cell-based. Particulars: Homo sapiens. The source holds these as a separate data set.
Assay [14] addresses Sphingosine 1-phosphate receptor 4 (Homo sapiens, UniProt O95977). In words: Fluorescence dose response cell-based high throughput screening assay for antagonists of the Sphingosine 1-Phosphate Receptor 4 (S1P4). [Related pubchem assays: 1524 (Confirmation in triplicates.), 1510 (Primary screen.)]. The class given is functional.
The subject of assay [15] is BJ. The assay is described as follows: BJ-TERT-LT-ST fibroblast viability loss – cell-based, RAS-independent, luminescence, dose response (AID 1935).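 Further: BJ fibroblasts immortalized with TERT plus LT and ST oncogenes.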 It counts as functional. Conditions: Homo sapiens.
Assay [16] can be described thus: DRD fibroblast viability loss – cell-based, non-viral oncogenic, luminescence, dose response (AID 1934). Conditions: Homo sapiens. The class given is functional.
The target in assay [17] is Sphingosine 1-phosphate receptor 1 (Homo sapiens, UniProt P21453). It counts as functional.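 Further: Tango beta-arrestin reporter U2OS cells stimulated with S1P near its EC80; inhibitor potency meaning antagonism of receptor activation by the natural agonist.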
Sphingosine 1-phosphate receptor 1, sequence (P21453 whole entry): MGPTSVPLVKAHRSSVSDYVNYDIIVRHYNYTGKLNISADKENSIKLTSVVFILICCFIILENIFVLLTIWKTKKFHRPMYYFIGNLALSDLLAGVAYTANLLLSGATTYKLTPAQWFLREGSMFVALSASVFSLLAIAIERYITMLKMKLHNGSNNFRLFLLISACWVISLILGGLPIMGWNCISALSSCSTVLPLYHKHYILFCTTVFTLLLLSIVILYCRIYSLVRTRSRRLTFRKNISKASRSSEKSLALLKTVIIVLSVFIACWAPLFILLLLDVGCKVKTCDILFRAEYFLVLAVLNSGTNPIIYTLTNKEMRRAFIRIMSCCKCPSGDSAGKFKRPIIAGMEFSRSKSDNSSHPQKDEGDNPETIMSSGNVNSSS
Assay [18] is described as follows: Intein inhibitors as potential Tuberculosis drugs, a cytotoxicity screen. [Related pubchem assays (depositor defined):AID2221, AID2223, AID434968, AID435010, AID449749, AID449750, AID489010]. It counts as functional.
In assay [19] the target is T2, Replicative DNA helicase DnaB (Mycobacterium tuberculosis, UniProt P9WMR3).
T2 sequence (P9WMR3 whole entry): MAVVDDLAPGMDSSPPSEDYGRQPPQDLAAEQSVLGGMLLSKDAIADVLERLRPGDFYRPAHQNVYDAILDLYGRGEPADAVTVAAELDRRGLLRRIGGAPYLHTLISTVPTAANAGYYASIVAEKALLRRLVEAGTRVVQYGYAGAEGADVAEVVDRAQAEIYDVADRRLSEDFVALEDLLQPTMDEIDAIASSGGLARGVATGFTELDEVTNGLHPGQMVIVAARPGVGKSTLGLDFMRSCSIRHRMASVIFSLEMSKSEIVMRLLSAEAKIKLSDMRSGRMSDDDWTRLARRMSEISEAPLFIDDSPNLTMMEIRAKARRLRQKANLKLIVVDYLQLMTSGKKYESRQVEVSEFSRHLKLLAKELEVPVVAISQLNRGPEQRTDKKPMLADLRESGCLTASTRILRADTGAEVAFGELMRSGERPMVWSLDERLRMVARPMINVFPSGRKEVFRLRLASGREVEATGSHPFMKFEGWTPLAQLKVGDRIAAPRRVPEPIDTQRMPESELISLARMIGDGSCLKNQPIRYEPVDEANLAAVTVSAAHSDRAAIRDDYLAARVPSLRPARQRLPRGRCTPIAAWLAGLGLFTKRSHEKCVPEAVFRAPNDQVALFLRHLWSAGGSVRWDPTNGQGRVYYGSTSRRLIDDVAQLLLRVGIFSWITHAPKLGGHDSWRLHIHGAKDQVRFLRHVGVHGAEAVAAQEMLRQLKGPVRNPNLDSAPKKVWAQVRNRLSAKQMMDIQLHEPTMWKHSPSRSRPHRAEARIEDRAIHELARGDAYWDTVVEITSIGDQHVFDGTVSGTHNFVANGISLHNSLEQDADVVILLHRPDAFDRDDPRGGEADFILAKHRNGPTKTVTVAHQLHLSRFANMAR
The assay is described as follows: DnaB intein splicing inhibitors, dose response, biochemical, cell-free fluorescence (AID 449749). It counts as functional.

The target in the next assay is T3, Protein RecA (Mycobacterium tuberculosis, UniProt P9WHJ3).
T3 sequence (P9WHJ3 whole entry): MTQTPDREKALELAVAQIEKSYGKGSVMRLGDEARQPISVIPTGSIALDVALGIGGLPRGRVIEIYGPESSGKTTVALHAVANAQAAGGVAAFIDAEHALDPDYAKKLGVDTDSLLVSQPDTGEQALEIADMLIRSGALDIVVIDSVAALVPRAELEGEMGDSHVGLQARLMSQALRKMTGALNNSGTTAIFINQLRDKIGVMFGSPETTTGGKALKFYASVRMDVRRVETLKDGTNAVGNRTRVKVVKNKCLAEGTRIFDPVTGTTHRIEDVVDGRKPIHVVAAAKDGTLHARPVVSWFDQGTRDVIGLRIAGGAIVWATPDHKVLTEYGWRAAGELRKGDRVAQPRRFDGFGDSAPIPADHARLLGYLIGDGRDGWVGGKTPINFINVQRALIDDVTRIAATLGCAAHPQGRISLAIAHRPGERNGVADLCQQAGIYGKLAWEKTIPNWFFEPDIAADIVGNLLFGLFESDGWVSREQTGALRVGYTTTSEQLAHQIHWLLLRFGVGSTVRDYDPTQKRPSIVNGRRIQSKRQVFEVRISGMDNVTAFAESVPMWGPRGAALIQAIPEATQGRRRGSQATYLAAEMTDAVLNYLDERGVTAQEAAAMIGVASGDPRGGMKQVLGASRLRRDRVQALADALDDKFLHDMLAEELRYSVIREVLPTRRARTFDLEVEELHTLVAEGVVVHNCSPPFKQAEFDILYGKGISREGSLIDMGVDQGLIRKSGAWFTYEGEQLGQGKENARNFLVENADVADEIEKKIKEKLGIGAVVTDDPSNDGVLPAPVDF
The assay is described as follows: Fluorescence Cell-Free Homogeneous Dose Retest to Identify Inhibitors of RecA-Intein Splicing Activity. [Related pubchem assays (depositor defined):AID2097, AID2223, AID489010, AID492950]. The class given is functional.

The target of the next assay is Melanocortin receptor 4 (Homo sapiens, UniProt P32245). In words: inhibitors of MC4R cAMP signaling – cell-based, TR-FRET, biased antagonists, dose response (AID 602298).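 Further: antagonist potency against agonist-stimulated cAMP production.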 It counts as functional. Background: Time-resolved FRET reads energy transfer from a long-lived donor to a nearby acceptor.
Melanocortin receptor 4, sequence (P32245 whole entry): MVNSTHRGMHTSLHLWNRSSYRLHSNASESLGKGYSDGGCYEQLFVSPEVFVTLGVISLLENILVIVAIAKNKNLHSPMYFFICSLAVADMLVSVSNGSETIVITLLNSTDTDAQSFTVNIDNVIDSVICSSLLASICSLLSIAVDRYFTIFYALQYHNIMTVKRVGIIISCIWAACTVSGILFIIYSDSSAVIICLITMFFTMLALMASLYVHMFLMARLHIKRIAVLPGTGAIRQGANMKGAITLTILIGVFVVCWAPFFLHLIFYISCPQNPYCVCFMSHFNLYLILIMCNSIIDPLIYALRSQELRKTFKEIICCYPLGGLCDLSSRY
The nature of assay [20]: cAMP pathway inhibition in counterscreen cell line – TR-FRET cAMP detection, counter-screen for MC4R biased antagonist project, dose response (AID 602305).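 Further: U2OS cells stimulated with forskolin near its EC80 as the cAMP inducer; potency is for inhibition of forskolin-stimulated cAMP signaling.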 It counts as functional, cell-based.
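Wherever CC50 is given: cells exposed to compound for 72 hours before luminescence readout.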

Voltage-gated inwardly rectifying potassium channel KCNH2, sequence (Q12809 whole entry): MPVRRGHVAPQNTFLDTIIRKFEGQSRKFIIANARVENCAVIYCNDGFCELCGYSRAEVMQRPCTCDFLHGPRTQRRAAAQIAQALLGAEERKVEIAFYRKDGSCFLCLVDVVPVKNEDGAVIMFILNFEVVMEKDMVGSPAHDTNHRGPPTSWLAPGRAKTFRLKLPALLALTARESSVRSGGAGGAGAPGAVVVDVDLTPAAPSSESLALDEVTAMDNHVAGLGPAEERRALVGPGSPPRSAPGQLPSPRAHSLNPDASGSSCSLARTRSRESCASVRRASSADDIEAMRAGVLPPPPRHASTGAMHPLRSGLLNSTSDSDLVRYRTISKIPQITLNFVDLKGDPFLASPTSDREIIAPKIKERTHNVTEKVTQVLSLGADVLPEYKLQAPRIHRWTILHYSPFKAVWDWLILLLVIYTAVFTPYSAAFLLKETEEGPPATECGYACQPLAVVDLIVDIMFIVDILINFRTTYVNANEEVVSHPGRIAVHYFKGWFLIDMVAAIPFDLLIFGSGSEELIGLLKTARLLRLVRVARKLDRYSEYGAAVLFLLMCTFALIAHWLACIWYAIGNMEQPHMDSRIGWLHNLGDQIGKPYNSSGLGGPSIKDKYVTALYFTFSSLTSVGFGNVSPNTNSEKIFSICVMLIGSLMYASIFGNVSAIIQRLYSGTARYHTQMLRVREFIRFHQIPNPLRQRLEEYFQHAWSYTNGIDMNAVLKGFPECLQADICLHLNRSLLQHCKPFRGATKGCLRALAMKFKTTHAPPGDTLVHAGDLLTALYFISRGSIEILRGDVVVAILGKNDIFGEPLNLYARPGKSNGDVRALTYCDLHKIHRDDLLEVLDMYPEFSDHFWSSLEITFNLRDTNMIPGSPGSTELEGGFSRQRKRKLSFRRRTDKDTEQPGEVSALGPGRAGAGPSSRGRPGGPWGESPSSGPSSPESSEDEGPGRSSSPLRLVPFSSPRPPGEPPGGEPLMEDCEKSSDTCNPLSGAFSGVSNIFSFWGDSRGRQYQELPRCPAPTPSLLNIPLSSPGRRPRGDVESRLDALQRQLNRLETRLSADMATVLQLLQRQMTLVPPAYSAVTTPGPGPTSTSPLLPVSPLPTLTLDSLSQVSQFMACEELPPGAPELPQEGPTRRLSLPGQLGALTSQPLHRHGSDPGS
Sphingosine 1-phosphate receptor 4, sequence (O95977 whole entry): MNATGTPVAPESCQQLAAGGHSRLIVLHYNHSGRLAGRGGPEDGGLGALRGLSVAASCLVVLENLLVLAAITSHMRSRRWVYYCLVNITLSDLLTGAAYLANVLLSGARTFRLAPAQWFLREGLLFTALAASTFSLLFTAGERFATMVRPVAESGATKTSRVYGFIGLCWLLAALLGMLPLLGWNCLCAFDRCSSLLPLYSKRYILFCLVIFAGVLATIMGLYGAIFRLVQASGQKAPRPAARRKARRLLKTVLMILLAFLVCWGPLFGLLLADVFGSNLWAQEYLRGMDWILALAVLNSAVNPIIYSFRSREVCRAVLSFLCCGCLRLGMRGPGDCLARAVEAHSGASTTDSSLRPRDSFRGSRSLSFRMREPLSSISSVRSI
Beta-adrenergic receptor kinase 1, sequence (P25098 whole entry, the tested form may be a part): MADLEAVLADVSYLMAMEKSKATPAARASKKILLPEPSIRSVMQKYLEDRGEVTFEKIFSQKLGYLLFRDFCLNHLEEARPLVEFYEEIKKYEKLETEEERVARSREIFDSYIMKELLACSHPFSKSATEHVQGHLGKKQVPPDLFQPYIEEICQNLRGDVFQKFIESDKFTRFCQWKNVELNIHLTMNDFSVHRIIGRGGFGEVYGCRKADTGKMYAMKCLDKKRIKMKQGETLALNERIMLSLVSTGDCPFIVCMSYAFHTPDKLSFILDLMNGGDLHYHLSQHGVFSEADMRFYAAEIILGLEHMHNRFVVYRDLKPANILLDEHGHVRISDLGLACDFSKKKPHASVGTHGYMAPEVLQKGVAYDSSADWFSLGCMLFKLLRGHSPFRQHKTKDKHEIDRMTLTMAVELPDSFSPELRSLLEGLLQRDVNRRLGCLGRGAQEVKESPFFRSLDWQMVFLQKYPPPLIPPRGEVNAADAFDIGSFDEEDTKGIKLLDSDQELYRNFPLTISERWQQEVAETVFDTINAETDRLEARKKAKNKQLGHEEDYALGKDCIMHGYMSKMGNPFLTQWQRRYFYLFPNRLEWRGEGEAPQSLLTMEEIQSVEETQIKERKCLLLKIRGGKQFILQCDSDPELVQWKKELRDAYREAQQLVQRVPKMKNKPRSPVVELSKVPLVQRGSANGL

In the case of `C#CCSc1nc2sc3c(c2c(=O)n1C)CCC3`, the concentration giving a half-maximal response (EC50) in [1] was 2.72 µM (active). Also, the half-inhibitory concentration (IC50) in [2] is 6.45 µM (active).
In the case of `CCCC(=O)Nc1ncnc2c1ncn2[C@@H]1O[C@@H]2COP(=O)(O)O[C@H]2[C@H]1OC(=O)CCC`, the results for the EC50 in assay [3] and in assay [4] were 12.3 µM (inactive) and 11.7 µM (inactive), respectively.
Regarding `C/C=C(/C)C(=O)O[C@H]1C(C)=C2[C@H]([C@@H]1OC(=O)CCCCCCC)[C@@](C)(OC(C)=O)C[C@@H](OC(=O)CCC)[C@@]1(O)[C@H]2OC(=O)[C@@]1(C)O`, the half-maximal activity concentration (AC50) in assay [5] was 22.4 µM (inconclusive).
Take `CC(=O)n1cc(N(C(=O)CCl)c2ccc(C)cc2)c2ccccc21`: the concentration giving a half-maximal response (EC50) with HEK293 [6] was 16.2 µM (active); in the assay on BJ [7] it was 812 nM (inconclusive); in the assay with BJ [9], 2.65 µM (inconclusive); in [11], > 20 µM (inactive); with BJ [15], 5.27 µM (inconclusive); in assay [16], 1.2 µM (active). For the same compound, at Protein RecA, the EC50 is 248 nM (active). For the same compound, the IC50 is 3.22 µM (active) with HEK293 [8]; 11.5 µM (active) in the assay with HEK293 [10]; 5.38 µM (active) in the assay with HEK293 [12]; > 20 µM (inactive) in the assay on HEK293 [13]; 1.3 µM (active) in assay [14]; 14.5 µM (not active) in assay [17]. Moreover, the IC50 (at Melanocortin receptor 4; in [20]) was > 64.6 µM (inactive) each time. Besides, the CC50 in assay [18] was 830 nM (active). The AC50 in [19] is 2.53 µM (active).

What is called EC50 is the concentration at which the effect is half-maximal. One may read the IC50 as the midpoint of a concentration-inhibition curve. What is called AC50 is the concentration at which the activity in the assay is half-maximal. As a reminder, the CC50 is the concentration at which the toxic effect on the cells reaches its halfway point.

(Values after ChEMBL document CHEMBL1201862, “PubChem BioAssay data set” (2004).)
